The text below walks through data of patent US20220274983A1, “JAK KINASE INHIBITOR AND USE THEREOF” (JIANGSU CAREPHAR PHARMACEUTICAL CO., LTD., priority 2019, published 2022).

The test system of one assay is Hela cells. Kind of assay: Proliferation inhibition based on Hela cells (OSM stimulation, CTG). It is filed as cell-based. The conditions noted are these: Homo sapiens, OSM stimulation, read-out: IC50 (uM), proliferation inhibitory activity on Hela cells. On the procedure: 1. Cell plating: cultured cells were collected and counted for viable cells with Vi-Cell XR cell counter. The cell suspension was adjusted to an appropriate concentration with the medium and then added to a 96-well cell culture plate. 50 μL-100 μL of the cell suspension was added to each well of the 96-well cell culture plate. The cell plating density depended on the growth rate of the cells. The cells were cultured in corresponding incubators.
2. Drug Treatment and OSM Stimulation
(§1) Firstly, a series of test compound concentration (work solution-1) was prepared using DMSO with 3× gradient dilution, and then it was subjected to fold dilution with RPMI1640+10% FBS to obtain a work solution-2; Cisplatin's work solution-2 was prepared with RPMI1640+10% FBS, and then 1-10 μL solution taken from the work solution-2 was added to the prepared cell wells containing medium. After incubation, 1-10 μL of OSM medium was added to each well and continued to culture. An appropriate CTG solution was added to each well. The mixture was shaken and mixed for 1-5 min and then a luminescence signal was determined with an Envision2104 plate reader.
Cell Survival Rate Calculation
(§2) T is the luminescence reading of a drug treatment group, and C is the average luminescence reading of a solvent control group.

A further assay deals with JAK1 (Homo sapiens, UniProt P23458). Kind of assay: JAK kinase inhibitory activity, HTRF biochemical assay. As to the method:
(§3) The compounds of the above embodiments were applied to the detection and screening of JAK kinase inhibitory activity.
(§4) A corresponding volume of DMSO was added to each well of a first 96-well plate. 20-30 μL of 100-200 μM stock solution of different test compounds were added to each well. The mixture was shaken and mixed for 3 min. All of the compounds were subjected to 3× serial dilution. 60-80 μL Kinase buffer was added to each well of a second 96-well plate, and 1-2 μL of the solution taken from each well of the first 96-well plate was added to the corresponding well of the second 96-well plate. The mixture was shaken and mixed for 3 min. 5 μL of compound dilution taken from each well of the second compound dilution plate was transferred to the corresponding well of a 384-well test plate. 1-2 μL TK Substrate-biotin was added to each well of the test plate. 1-2 μL of enzyme mixture was added to each well. At the same time, a blank well without enzyme was set. 1-2 μL of ATP solution was added to each well, the plate was sealed and reacted at room temperature. The reaction time was as follows: JAK1: 2 h, JAK2: 30 min, JAK3: 30 min, and TYK2: 50 min. 3-5 μL of Streptavidin-XL665 and 3-5 μL of TK Antibody-cryptate were added to each well, the plate was sealed and allowed to stand at room temperature for 30 min to complete the reaction.
(§5) The percentage of inhibition was calculated based on the following formula:
(§6) Inhibition %=[(Ratiomax−Ratiocompound)/(Ratiomax−Ratiomin)]×100%
(§7) Ratiocompound is the HTRF ratio at a given compound concentration, Ratiomin is the HTRF ratio added to the blank well, and Ratiomax is the HTRF ratio without adding the compound. GraphPad Prism 5.0 software was used to plot a sigmoid dose-inhibition rate curve with a non-linear regression model and calculate the IC50 value.
(Time-resolved FRET reads energy transfer from a long-lived donor to a nearby acceptor.)

The next assay has as its target TYK2 (Homo sapiens, UniProt P29597). Described as above. As to the method: as §3, §4, §5, §6, §7
A further assay has as its target JAK2 (Homo sapiens, UniProt O60674). The assay is described as above. As to the method:
as §3, §4, §5, §6, §7

The target in another assay is T1, JAK3 (Homo sapiens, UniProt P52333).
T1 sequence (P52333 1-1124): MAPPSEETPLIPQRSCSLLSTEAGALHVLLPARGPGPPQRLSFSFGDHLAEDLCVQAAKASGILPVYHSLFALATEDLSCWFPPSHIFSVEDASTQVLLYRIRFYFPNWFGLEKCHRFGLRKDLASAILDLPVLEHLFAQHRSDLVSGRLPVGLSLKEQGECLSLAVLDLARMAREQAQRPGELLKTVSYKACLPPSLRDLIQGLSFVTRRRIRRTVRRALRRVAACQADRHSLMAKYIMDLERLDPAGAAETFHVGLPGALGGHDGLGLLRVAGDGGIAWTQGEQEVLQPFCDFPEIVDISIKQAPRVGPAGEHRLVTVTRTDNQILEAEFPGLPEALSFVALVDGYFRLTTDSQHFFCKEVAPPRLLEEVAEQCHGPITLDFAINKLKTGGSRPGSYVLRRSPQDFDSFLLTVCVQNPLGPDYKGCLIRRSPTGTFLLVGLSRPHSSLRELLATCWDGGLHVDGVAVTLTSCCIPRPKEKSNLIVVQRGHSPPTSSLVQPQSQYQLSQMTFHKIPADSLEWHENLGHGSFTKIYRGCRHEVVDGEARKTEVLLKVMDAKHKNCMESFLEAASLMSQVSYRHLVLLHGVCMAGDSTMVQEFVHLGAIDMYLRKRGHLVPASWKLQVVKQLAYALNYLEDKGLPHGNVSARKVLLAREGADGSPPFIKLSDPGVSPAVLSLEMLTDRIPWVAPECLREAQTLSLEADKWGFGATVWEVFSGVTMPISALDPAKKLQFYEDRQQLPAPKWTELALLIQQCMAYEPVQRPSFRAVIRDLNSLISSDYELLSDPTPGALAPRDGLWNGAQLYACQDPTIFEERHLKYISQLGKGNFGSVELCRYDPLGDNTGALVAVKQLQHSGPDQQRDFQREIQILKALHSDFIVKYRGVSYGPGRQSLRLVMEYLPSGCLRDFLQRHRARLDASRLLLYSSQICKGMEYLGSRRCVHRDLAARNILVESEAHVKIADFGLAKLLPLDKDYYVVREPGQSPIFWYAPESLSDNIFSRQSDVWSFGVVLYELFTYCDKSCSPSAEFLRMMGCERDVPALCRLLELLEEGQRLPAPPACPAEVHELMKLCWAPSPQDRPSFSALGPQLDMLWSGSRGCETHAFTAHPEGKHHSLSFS
Described as above. As to the method: as §3, §4, §5, §6, §7

Another assay concerns THP1 cells. Kind of assay: Proliferation inhibition based on THP1 cells (IL-4 stimulation, CTG). The assay is classed as cell-based. The conditions noted are these: Homo sapiens, THP-1, read-out: IC50 (uM), proliferation inhibitory activity on THP1 cells. On the procedure: 1. Cell plating: cultured cells were collected and counted for viable cells with Vi-Cell XR cell counter. The cell suspension was adjusted to an appropriate concentration with the medium and then added to a 96-well cell culture plate. 80 μL of the cell suspension was added to each well of the 96-well cell culture plate. The cell plating density depended on the growth rate of the cells. The cells were cultured in corresponding incubators.
as §1, with “2. Drug treatment and IL-4 stimulation: firstly,” for “Firstly,”, “medium. The cells were cultured in the corresponding incubators.” for “medium.”, “IL-4” for “OSM”, “well.” for “well. The mixture was shaken and mixed for 1-5 min and then a luminescence signal was determined with an Envision2104 plate reader.”
Cell Survial Rate Calculation
as §2

TYK2, sequence (P29597 whole entry, species assumed): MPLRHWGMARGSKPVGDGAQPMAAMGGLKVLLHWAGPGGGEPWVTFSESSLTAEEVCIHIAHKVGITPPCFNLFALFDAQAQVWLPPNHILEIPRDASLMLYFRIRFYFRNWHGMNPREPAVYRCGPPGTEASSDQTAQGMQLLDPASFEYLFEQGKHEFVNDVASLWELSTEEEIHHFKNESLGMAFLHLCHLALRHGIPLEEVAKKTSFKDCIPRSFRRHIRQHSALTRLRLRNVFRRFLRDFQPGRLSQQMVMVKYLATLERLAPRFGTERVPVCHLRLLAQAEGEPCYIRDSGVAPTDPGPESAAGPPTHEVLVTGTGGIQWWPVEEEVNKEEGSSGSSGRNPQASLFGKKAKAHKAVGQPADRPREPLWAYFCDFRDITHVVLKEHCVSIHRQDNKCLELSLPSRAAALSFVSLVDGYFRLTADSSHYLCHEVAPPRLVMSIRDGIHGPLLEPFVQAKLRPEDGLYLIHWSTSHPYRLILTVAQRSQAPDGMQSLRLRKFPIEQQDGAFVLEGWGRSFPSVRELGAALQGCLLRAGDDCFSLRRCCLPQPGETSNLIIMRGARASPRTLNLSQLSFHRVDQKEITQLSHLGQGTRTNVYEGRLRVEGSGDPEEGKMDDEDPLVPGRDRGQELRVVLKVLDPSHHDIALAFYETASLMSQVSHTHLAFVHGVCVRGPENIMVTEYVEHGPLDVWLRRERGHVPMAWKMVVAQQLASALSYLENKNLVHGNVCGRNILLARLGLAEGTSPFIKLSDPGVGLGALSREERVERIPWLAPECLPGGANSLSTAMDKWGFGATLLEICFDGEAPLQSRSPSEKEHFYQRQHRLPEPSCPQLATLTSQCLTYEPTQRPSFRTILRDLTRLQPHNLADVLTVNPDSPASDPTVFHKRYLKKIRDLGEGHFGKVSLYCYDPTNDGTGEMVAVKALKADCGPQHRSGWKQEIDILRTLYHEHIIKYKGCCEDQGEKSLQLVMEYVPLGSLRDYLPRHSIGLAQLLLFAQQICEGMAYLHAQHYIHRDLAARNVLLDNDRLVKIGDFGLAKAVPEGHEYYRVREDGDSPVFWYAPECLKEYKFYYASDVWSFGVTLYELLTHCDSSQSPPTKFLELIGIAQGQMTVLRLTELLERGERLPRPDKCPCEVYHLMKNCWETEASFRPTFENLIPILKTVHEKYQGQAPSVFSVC
JAK2, sequence (O60674 whole entry, species assumed): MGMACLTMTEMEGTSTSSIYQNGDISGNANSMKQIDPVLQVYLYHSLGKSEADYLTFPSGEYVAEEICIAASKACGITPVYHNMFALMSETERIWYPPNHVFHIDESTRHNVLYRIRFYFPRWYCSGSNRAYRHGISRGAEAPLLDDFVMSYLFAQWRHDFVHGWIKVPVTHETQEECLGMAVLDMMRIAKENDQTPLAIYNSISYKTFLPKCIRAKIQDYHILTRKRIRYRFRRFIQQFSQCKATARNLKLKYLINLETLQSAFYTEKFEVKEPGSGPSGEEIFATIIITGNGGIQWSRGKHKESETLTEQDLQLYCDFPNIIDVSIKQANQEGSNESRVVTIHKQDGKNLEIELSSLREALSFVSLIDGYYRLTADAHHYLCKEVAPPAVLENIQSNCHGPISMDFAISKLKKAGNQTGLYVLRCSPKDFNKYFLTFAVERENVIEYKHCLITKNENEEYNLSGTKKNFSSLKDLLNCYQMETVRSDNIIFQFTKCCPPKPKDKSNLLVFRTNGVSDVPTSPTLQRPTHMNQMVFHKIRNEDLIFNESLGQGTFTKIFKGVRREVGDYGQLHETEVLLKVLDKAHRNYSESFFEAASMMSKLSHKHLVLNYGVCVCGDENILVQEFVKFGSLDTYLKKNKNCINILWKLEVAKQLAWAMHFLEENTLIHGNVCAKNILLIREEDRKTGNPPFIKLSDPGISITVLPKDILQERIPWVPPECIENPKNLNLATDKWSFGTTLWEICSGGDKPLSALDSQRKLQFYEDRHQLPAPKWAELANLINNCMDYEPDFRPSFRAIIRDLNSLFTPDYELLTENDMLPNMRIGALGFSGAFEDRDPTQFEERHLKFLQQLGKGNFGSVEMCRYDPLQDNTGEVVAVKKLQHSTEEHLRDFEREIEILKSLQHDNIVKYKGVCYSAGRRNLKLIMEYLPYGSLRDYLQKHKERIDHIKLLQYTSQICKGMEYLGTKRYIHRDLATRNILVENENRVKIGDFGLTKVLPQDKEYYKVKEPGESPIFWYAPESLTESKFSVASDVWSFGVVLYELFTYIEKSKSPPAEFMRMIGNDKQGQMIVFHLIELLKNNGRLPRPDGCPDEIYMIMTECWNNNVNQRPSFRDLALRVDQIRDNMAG
JAK1, sequence (P23458 whole entry, species assumed): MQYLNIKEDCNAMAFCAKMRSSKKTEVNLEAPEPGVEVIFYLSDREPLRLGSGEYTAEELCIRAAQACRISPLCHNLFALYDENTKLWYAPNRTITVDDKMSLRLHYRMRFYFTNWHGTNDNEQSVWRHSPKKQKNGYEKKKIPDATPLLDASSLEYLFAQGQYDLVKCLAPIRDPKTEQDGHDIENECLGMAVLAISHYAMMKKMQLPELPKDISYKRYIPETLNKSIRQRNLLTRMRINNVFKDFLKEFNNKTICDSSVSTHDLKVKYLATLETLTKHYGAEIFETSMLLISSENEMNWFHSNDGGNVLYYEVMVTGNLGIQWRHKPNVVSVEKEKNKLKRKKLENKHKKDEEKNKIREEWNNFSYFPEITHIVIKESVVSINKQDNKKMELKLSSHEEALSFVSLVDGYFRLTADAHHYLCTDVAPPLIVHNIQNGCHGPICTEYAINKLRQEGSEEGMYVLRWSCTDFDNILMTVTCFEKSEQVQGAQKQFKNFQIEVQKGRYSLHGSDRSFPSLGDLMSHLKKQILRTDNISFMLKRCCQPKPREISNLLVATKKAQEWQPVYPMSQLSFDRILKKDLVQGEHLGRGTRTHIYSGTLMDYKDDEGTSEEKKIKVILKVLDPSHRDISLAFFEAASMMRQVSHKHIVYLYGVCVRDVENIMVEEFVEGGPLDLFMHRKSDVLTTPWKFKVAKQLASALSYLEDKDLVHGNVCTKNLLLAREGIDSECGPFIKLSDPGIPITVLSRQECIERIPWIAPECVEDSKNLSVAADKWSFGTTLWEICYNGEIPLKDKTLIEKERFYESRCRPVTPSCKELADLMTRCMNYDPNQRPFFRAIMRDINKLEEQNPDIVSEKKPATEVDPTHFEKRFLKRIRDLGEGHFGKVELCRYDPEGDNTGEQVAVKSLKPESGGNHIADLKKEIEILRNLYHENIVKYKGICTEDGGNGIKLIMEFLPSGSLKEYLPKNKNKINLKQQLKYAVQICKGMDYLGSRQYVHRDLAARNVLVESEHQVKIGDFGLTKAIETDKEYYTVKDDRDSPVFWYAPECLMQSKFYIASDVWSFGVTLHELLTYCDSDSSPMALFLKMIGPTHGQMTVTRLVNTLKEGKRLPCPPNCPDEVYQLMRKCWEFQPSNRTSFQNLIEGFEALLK

For `O=C(Nc1cn2c(-c3ccc(CN4CCS(=O)(=O)CC4)s3)cccc2n1)[C@H]1C[C@@H]1F` (relative stereo) [EXP-3, trans-N-[5-[5-[(1,1-dioxo-1,4-thiazin-4-yl)methyl]-2-thiophene]imidazo[1,2-a]pyridin-2-yl]-2-fluoro-cyclopropylcarboxamide], the IC50 with Hela cells was under 5 µM; on JAK1, 10 to 30 nM; on TYK2, over 500 nM; against JAK2, 30 to 50 nM; at JAK3, over 500 nM; in the assay with THP1 cells, under 5 µM.
In the case of `O=C(Nc1nc2cccc(-c3ccc(CN4CCS(=O)(=O)CC4)s3)n2n1)C1CC1` [EXP-1], the IC50 with Hela cells was under 5 µM; on JAK1, 30 to 50 nM; against TYK2 it was over 500 nM; at JAK2, 30 to 50 nM; against JAK3, 50 to 500 nM; with THP1 cells it was under 5 µM.
